This is an account of results in ChEMBL document CHEMBL4811278, “Discovery of novel modulators for the PPARα (peroxisome proliferator activated receptor α): Potential therapies for nonalcoholic fatty liver disease” (Bioorg Med Chem, 2021).

The target in data set [1] is T1, Peroxisome proliferator-activated receptor alpha (Mus musculus) (UniProt P23204).
T1 sequence (whole entry): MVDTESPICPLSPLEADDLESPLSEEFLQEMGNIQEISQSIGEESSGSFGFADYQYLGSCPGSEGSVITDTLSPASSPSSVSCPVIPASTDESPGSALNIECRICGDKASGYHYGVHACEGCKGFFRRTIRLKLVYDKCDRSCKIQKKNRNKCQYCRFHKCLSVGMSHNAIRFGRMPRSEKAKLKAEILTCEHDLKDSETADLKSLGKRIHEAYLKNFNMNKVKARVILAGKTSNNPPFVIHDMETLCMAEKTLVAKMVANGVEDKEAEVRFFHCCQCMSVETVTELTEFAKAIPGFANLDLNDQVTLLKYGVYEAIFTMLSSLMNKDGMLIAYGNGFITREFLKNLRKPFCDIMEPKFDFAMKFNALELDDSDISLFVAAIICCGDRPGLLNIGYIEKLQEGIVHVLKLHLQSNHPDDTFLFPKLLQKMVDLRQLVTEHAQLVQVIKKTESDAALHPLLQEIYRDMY
Kind of data set: In vivo agonist activity at PPARalpha in high fat diet-induced nonalcoholic steatohepatitis C57BL/6J mouse model assessed as increase in Cyp4a3 mRNA expression in liver administered at 3 mg/kg, po and measured after 24 hrs by quantitative real time PCR analysis. The class given is functional, organism-based.

Data set [2] deals with Mus musculus. In words: Hypolipidemic activity in high fat diet-induced nonalcoholic steatohepatitis C57BL/6J mouse model assessed as reduction in plasma triglyceride level at 3 mg/kg, po administered via gavage and measured after 24 hrs. It is filed as functional.
The target in data set [3] is T1, Peroxisome proliferator-activated receptor alpha (Mus musculus). Kind of data set: In vivo agonist activity at PPARalpha in high fat diet-induced nonalcoholic steatohepatitis C57BL/6J mouse model assessed as trans-repression of ApoC3 mRNA expression in liver administered at 3 mg/kg, po and measured after 24 hrs by quantitative real time PCR analysis. It is filed as functional, organism-based.

Data set [4] deals with T2, Peroxisome proliferator-activated receptor gamma (Homo sapiens, UniProt P37231).
T2 sequence (P37231 whole entry): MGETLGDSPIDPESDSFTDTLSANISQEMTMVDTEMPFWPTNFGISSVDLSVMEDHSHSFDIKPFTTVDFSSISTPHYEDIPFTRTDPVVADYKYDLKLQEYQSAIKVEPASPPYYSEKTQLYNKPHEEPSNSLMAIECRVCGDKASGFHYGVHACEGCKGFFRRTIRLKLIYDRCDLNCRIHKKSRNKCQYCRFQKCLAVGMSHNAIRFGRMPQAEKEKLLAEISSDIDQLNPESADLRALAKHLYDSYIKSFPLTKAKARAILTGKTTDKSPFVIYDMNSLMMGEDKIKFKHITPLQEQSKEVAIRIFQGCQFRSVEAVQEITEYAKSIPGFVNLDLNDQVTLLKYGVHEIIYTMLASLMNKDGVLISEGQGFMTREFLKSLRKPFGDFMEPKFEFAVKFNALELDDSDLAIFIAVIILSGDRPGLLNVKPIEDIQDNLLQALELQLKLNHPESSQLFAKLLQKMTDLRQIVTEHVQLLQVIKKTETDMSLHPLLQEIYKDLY
Kind of data set: Agonist activity at Gal4-fused human PPARgamma expressed in monkey CV1 cells assessed as receptor transactivation incubated for 45 hrs by luciferase reporter gene assay. The class given is cell-based, CV-1.

In data set [5] the target is T3, Peroxisome proliferator-activated receptor delta (Homo sapiens, UniProt Q03181).
T3 sequence (Q03181 whole entry): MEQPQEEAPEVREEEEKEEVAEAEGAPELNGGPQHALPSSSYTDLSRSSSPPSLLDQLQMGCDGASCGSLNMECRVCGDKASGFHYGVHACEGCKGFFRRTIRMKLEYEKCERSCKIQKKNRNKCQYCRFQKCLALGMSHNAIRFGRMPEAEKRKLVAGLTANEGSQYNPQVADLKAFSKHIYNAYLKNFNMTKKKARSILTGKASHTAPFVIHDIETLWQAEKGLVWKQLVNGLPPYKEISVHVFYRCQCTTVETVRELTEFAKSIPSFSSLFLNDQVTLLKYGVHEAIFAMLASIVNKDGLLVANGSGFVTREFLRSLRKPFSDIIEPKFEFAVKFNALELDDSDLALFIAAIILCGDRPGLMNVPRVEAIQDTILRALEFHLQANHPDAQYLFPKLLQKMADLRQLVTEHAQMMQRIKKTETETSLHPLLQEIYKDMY
In words: Agonist activity at Gal4-fused human PPARdelta expressed in monkey CV1 cells assessed as receptor transactivation incubated for 45 hrs by luciferase reporter gene assay. It is filed as cell-based, CV-1.

The test system of data set [6] is Mus musculus. Kind of data set: Upregulation of PPARalpha expression in liver of high fat diet-induced nonalcoholic steatohepatitis C57BL/6J mouse model at 3 mg/kg, po and measured after 24 hrs by quantitative real time PCR analysis. The class given is functional, organism-based.
The target of data set [7] is T1, Peroxisome proliferator-activated receptor alpha (Mus musculus). In words: In vivo agonist activity at PPARalpha in high fat diet-induced nonalcoholic steatohepatitis C57BL/6J mouse model assessed as increase in LPL mRNA expression in liver administered at 3 mg/kg, po and measured after 24 hrs by quantitative real time PCR analysis. It is filed as functional, organism-based.

The target in data set [8] is T4, Peroxisome proliferator-activated receptor alpha (Homo sapiens, UniProt Q07869).
T4 sequence (Q07869 whole entry): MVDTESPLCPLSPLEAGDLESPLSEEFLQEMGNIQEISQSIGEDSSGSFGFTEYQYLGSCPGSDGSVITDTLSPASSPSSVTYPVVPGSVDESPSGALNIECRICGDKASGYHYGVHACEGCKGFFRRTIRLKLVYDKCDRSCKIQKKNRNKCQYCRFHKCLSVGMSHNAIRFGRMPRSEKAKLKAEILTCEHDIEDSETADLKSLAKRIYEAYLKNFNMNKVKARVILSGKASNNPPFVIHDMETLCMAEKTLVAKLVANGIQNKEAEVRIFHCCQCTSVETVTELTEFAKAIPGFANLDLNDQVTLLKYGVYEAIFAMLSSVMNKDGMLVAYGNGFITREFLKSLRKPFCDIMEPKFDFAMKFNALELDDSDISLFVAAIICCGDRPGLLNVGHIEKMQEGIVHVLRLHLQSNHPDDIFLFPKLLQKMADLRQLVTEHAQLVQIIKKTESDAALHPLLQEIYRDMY
Kind of data set: Agonist activity at Gal4-fused human PPARalpha co-expressed with RXRalpha in monkey CV1 cells assessed as PPRE transcriptional activation incubated for 45 hrs by luciferase reporter gene assay. The class given is cell-based, CV-1.

Data set [9] deals with T1, Peroxisome proliferator-activated receptor alpha (Mus musculus). Kind of data set: In vivo agonist activity at PPARalpha in high fat diet-induced nonalcoholic steatohepatitis C57BL/6J mouse model assessed as increase in ACOX1 mRNA expression in liver administered at 3 mg/kg, po and measured after 24 hrs by quantitative real time PCR analysis. It is filed as functional, organism-based.

For data set [10] the target is unchanged. Kind of data set: In vivo agonist activity at PPARalpha in high fat diet-induced nonalcoholic steatohepatitis C57BL/6J mouse model assessed as increase in LPL mRNA expression in liver administered at 3 mg/kg, po administered once daily for 7 days by quantitative real time PCR analysis. It is filed as functional, organism-based. The note with it: time 7.0 day.

Data set [11] in a line: Toxicity in high fat diet-induced nonalcoholic steatohepatitis C57BL/6J mouse model assessed as increase in plasma glucose level at 3 mg/kg, po administered once daily for 7 days and measured after 4 days. It is filed as organism-based. As to conditions: in vivo, 96 h, time 4 day.
Data set [12] concerns the target T1, Peroxisome proliferator-activated receptor alpha (Mus musculus). Kind of data set: In vivo agonist activity at PPARalpha in high fat diet-induced nonalcoholic steatohepatitis C57BL/6J mouse model assessed as increase in mACADM gene expression in liver at 3 mg/kg, po administered once daily for 7 days by quantitative real time PCR analysis. It is filed as functional, organism-based. The note with it: time 7.0 day.

For data set [13] the target is unchanged. Kind of data set: In vivo agonist activity at PPARalpha in high fat diet-induced nonalcoholic steatohepatitis C57BL/6J mouse model assessed as increase in Cyp4a3 mRNA expression in liver administered at 3 mg/kg, po administered once daily for 7 days by quantitative real time PCR analysis. It is filed as functional, organism-based. As to conditions: time 7.0 day.

Data set [14] has the same target. Kind of data set: In vivo agonist activity at PPARalpha in high fat diet-induced nonalcoholic steatohepatitis C57BL/6J mouse model assessed as increase in mCPT1A gene expression in liver at 3 mg/kg, po administered once daily for 7 days and measured at >3 days by quantitative real time PCR analysis. It is filed as functional, organism-based. As to conditions: time day >3.

In data set [15] the target is T5, Peroxisome proliferator-activated receptor alpha (Mus musculus, UniProt P23204).
T5 sequence (P23204 whole entry): T1 sequence (whole entry)
Kind of data set: Agonist activity at Gal4-fused mouse PPARalpha co-expressed with RXRalpha in monkey CV1 cells assessed as PPRE transcriptional activation incubated for 45 hrs by luciferase reporter gene assay. The class given is cell-based, CV-1.

The source made the active and inactive calls. The calls are words filed in the database; no cut-off is given here. A value given as a limit tells only on which side of the number the result lay.

As to `COc1cccc(Cn2c(CCCc3ccc(OC(C)(C)C(=O)O)cc3)nn(Cc3ccc(C)cc3)c2=O)c1`, the outcome (in [1]; in [3]; with Mus musculus [6]; in data set [7]; in data set [9]) was Active. Further, the inhibition in vivo at 3 mg/kg with Mus musculus [2] was at least 50%. Further, the EC50 in data set [4] is over 10 µM; in [5], over 10 µM; in data set [8], 0.001 µM.
Take `CC(C)(Sc1ccc(CCN(CCCCC2CCCCC2)C(=O)NC2CCCCC2)cc1)C(=O)O` [GW7647]: the outcome in data set [1], in data set [10] and in [9] was inactive. The inhibition in vivo at 3 mg/kg in the data set with Mus musculus [2] is at least 50%. In addition, the Activity entry in data set [11] is “Toxic”. Further, the result in data set [12], in data set [13] and in [14] was Active.
Take `Cc1ccc(Cn2nc(CCCc3ccc(OC(C)(C)C(=O)O)cc3)n(Cc3ccc(Cl)cc3)c2=O)cc1`: the result (in [1]; in [3]; with Mus musculus [6]; in data set [7]; in data set [9]) was Active. In addition, in the data set with Mus musculus [2], the inhibition in vivo at 3 mg/kg is at least 50%. Also, the EC50 in data set [4] is over 10 µM; in data set [5], over 10 µM; in data set [15], 0.01 µM; in data set [8], 0.001 µM.
Turning to `Cc1ccc(Cn2nc(CCCc3ccc(OC(C)(C)C(=O)O)cc3)n(Cc3ccc(F)cc3)c2=O)cc1`, the result (in data set [1]; in [3]; in the data set with Mus musculus [6]; in data set [7]; in [9]) was Active. The inhibition in vivo at 3 mg/kg in the data set with Mus musculus [2] was at least 50%. For the same compound, the EC50 in data set [4] is over 10 µM; in [5], over 10 µM; in [8], 0.00095 µM.
For the compound `COc1ccc(Cn2c(CCCc3ccc(OC(C)(C)C(=O)O)cc3)nn(Cc3ccc(C(C)(C)C)cc3)c2=O)cc1`, the outcome (in data set [1]; in [3]; in the data set on Mus musculus [6]; in data set [9]) was Active. The inhibition in vivo at 3 mg/kg with Mus musculus [2] is at least 50%.
With `Cc1ccc(Cn2nc(CCCc3ccc(OC(C)(C)C(=O)O)cc3)n(Cc3ccc(C)cc3)c2=O)cc1`, the outcome in data set [1], in [3] and in data set [9] was inactive. In addition, the inhibition in vivo at 3 mg/kg with Mus musculus [2] was at least 50%. In addition, the results for the EC50 in data set [4], in data set [5] and in data set [8] were over 10 µM, over 10 µM and 0.00085 µM, respectively. Moreover, the result (with Mus musculus [6]; in [7]) was Active.
In the case of `C=Cc1ccc(Cn2nc(CCCc3ccc(OC(C)(C)C(=O)O)cc3)n(Cc3ccc(C)cc3)c2=O)cc1`, the result (in data set [1]; in [3]; with Mus musculus [6]; in data set [7]; in data set [9]) was Active. The inhibition in vivo at 3 mg/kg with Mus musculus [2] is at least 50%. For the same compound, the concentration giving a half-maximal response (EC50) is over 10 µM in data set [4], over 10 µM in data set [5], 0.02 µM in [15] and 0.012 µM in [8].
In the case of `COc1cc(Cn2c(CCCc3ccc(OC(C)(C)C(=O)O)cc3)nn(Cc3ccc(C)cc3)c2=O)cc(OC)c1OC`, the result (in [1]; in data set [3]; in the data set with Mus musculus [6]; in data set [7]; in data set [9]) was Active. In the data set on Mus musculus [2], the inhibition in vivo at 3 mg/kg is at least 50%. In addition, the concentration giving a half-maximal response (EC50) in data set [4] and in data set [5] was over 10 µM each time.
Turning to `Cc1ccc(Cn2nc(CCCc3ccc(OC(C)(C)C(=O)O)cc3)n(Cc3ccccc3)c2=O)cc1`, the outcome (in data set [1]; in data set [3]; in the data set with Mus musculus [6]; in data set [7]; in data set [9]) was Active. For the same compound, the inhibition in vivo at 3 mg/kg in the data set with Mus musculus [2] was at least 50%. The EC50 in data set [4] and in [5] was over 10 µM in each case.
